Ends that are not written are not given here.

Here are results for 22 substances from patent US8227414B2 ([…].R.L., priority 2005, dated 2012).

The first assay has as its system vas deferens of knockout mice for the NOP receptor (NOP−/−). Description: Electrically stimulated vas deferens from NOP receptor knockout mice. As to conditions: Table 2. Type of assay: cell-based, mouse.
“DPDPE [[D-Pen^2,D-Pen^5]-Enkephalin, reference compound]”: the “Emax NOP−/−” value is recorded as 91 ± 5% and the “pEC50 NOP−/−” value is given as 8.20.

For the next assay, the system named is mouse vas deferens. Description: Inhibition of the twitch induced by electrical stimulation of mouse vas deferens. The assay is classed as cell-based.
Details: not given
For “N/OFQ-NH2 (FGGFTGARKSARKLANQ-NH2; UniProt Q13519 130-146, looked up) [reference compound]”, the Emax is recorded as 93 ± 2%.

Staying with this assay, now noted: Table 2; wild type (NOP+/+) mice.
Consider “DPDPE [[D-Pen^2,D-Pen^5]-Enkephalin, reference compound]”, for which the “Emax NOP+/+” value came to 93 ± 3% and the “pEC50 NOP+/+” value was 8.40.

Still in this assay, the particulars now being: Table 4.
Turning to “[(aMe)D/L-Leu^7]N/OFQ-NH2 [[(aMe)D/L-Leu^7]N/OFQ-NH2 (diastereomer 1)]”, the Emax is listed as 84 ± 1% and the “pEC50 (CL 95%)” value is on record as 7.33 (7.04-7.62).

As to “[(aMe)D/L-Leu^7]N/OFQ-NH2 [[(aMe)D/L-Leu^7]N/OFQ-NH2 (diastereomer 2)]”, the Emax is 95 ± 2% and the “pEC50 (CL 95%)” value was 7.12 (7.02-7.22).

Take [(aMe)D/L-Leu^11]N/OFQ-NH2: the Emax is reported as 91 ± 4% and the “pEC50 (CL 95%)” value was 7.87 (7.67-8.07).

For the substance “[(aMe)D/L-Val^7]N/OFQ-NH2 [[(aMe)D/L-Val^7]N/OFQ-NH2 (diastereomer 1)]”, the Emax is recorded as 88 ± 1% and the “pEC50 (CL 95%)” value is on record as 7.26 (7.00-7.52).

“[(aMe)D/L-Val^7]N/OFQ-NH2 [[(aMe)D/L-Val^7]N/OFQ-NH2 (diastereomer 2)]”: the Emax is 95 ± 1% and the “pEC50 (CL 95%)” value is reported as 7.56 (7.34-7.78).

Take “[(aMe)D/L-Val^11]N/OFQ-NH2 [[(aMe)D/L-Val^11]N/OFQ-NH2 (diastereomer 1)]”: the Emax is recorded as 93 ± 2% and the “pEC50 (CL 95%)” value was 7.71 (7.37-8.05).

Take “[(aMe)D/L-Val^11]N/OFQ-NH2 [[(aMe)D/L-Val^11]N/OFQ-NH2 (diastereomer 2)]”: the Emax is recorded as 86 ± 4% and the “pEC50 (CL 95%)” value is on record as 7.83 (7.67-7.99).

On to [Ac3c^7]N/OFQ-NH2, for which the maximal response (Emax) turned out to be 98 ± 1% and the “pEC50 (CL 95%)” value was 7.08 (6.82-7.34).

For the substance [Ac3c^11]N/OFQ-NH2, the Emax was determined as 91 ± 4% and the “pEC50 (CL 95%)” value is reported as 7.78 (7.62-7.94).

On to [Ac5c^7]N/OFQ-NH2, for which the maximal response (Emax) is 98 ± 1% and the “pEC50 (CL 95%)” value is 7.60 (7.40-7.80).

In the case of [Ac5c^11]N/OFQ-NH2, the Emax was 89 ± 4% and the “pEC50 (CL 95%)” value is on record as 8.08 (7.93-8.23).

In the case of [Ac6c^7]N/OFQ-NH2, the maximal response (Emax) was determined as 87 ± 1% and the “pEC50 (CL 95%)” value is recorded as 7.20 (6.86-7.54).

Turning to [Ac6c^11]N/OFQ-NH2, the Emax is recorded as 89 ± 4% and the “pEC50 (CL 95%)” value is 7.79 (7.53-8.05).

Turning to [Deg^7]N/OFQ-NH2, the Emax is reported as 89 ± 2% and the “pEC50 (CL 95%)” value is given as 7.91 (7.53-8.27).

For the substance [Deg^11]N/OFQ-NH2, the Emax worked out at 87 ± 4% and the “pEC50 (CL 95%)” value was 7.75 (7.43-7.89).

As to [Dpg^7]N/OFQ-NH2, the Emax is recorded as 91 ± 4% and the “pEC50 (CL 95%)” value is 7.90 (7.71-8.11).

Turning to [Dpg^11]N/OFQ-NH2, the Emax was 86 ± 3% and the “pEC50 (CL 95%)” value was 7.53 (7.17-8.04).

For “[Iva^7]N/OFQ-NH2 [[Iva^7]N/OFQ-NH2 (diastereomer 1)]”, the Emax is given as 91 ± 4% and the “pEC50 (CL 95%)” value is listed as 7.83 (7.74-7.92).

“[Iva^7]N/OFQ-NH2 [[Iva^7]N/OFQ-NH2 (diastereomer 2)]”: the Emax is reported as 88 ± 3% and the “pEC50 (CL 95%)” value is recorded as 7.62 (7.32-7.92).

The same assay, now with this note: agonist N/OFQ.
For “[Nphe1,Arg14,Lys15]N/OFQ-NH2 (XGGFTGARKSARKRKNQ; Nphe1, C-terminal amide; Synthetized. Featured in patent as UFP-101, ref. Calòet al. Br J Pharmacol 136, 303-311, 2002) [reference compound]”, the “pA2 in competition with the endogenous agonist N/OFQ” value is on record as 6.91.

Still in this assay, the particulars now being: agonist UFP-112.
As for “[Nphe1,Arg14,Lys15]N/OFQ-NH2 (XGGFTGARKSARKRKNQ; Nphe1, C-terminal amide; Synthetized. Featured in patent as UFP-101, ref. Calòet al. Br J Pharmacol 136, 303-311, 2002) [reference compound]”, the “pA2 in competition with UFP-112” value was 6.81.

As a reminder, the Emax is the size of the effect at its maximum, as opposed to the concentration needed.
